Measurements from patent publication US20240025844A1, “PHENYL UREA ANALOGS AS FORMYL PEPTIDE RECEPTOR 1 (FPR1) SELECTIVE AGONISTS” (Allergan, Inc., priority 2018, published 2024).

How the values were obtained:
FPR2 = biological target: T1, FPR2 (Homo sapiens, UniProt P25090); assay: Compound-induced calcium activity on FLIPR Tetra in Gα16 cells stably expressing FPR2; format: cell-based; details: for FPR2 Ga16-HEK293 (Rel. eff.): relative efficacy, value in brackets, table head Ga16-HEK293, text CHO-Gα16 cells; for EC50: table head Ga16-HEK293, text CHO-Gα16 cells stably expressing FPR2, tested 0.61 to 10,000 nM
T1 construct: expressed in transfected cells; host or cells: CHO-Gα16 cells
T1 sequence (P25090 1-351): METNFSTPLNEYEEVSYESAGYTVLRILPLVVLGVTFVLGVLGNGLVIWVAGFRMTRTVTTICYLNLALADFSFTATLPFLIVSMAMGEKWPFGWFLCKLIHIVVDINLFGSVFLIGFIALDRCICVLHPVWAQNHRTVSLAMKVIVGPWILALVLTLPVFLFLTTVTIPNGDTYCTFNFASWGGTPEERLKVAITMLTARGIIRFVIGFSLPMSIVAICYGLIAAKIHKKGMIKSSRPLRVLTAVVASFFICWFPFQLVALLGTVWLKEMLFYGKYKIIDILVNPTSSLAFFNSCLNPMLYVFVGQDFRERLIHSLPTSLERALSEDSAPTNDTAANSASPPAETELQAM
Description: (§1) CHO-Gα16 cells stably expressing FPR1 or FPR2 were cultured in (F12, 10% FBS, 1% PSA, 400 μg/ml geneticin and 50 μg/ml hygromycin). In general, the day before the experiment, 18,000 cells/well were plated in a 384-well clear bottom poly-D-lysine coated plate. The following day the screening compound-induced calcium activity was assayed on the FLIPR^Tetra. The drug plates were prepared in 384-well microplates using the EP3 and the MultiPROBE robotic liquid handling systems. Compounds were tested at concentrations ranging from 0.61 to 10,000 nM. Results are expressed as EC50 (nM) and efficacy values.

FPR1 = biological target: T2, FPR1 (Homo sapiens, UniProt P21462); assay: Compound-induced calcium activity on FLIPR Tetra in Gα16 cells stably expressing FPR1; format: cell-based; details: for FPR1 Ga16-HEK293 (Rel. eff.): relative efficacy, value in brackets, table head Ga16-HEK293, text CHO-Gα16 cells; for EC50: table head Ga16-HEK293, text CHO-Gα16 cells stably expressing FPR1, tested 0.61 to 10,000 nM
T2 construct: expressed in transfected cells; host or cells: CHO-Gα16 cells
T2 sequence (P21462 1-350): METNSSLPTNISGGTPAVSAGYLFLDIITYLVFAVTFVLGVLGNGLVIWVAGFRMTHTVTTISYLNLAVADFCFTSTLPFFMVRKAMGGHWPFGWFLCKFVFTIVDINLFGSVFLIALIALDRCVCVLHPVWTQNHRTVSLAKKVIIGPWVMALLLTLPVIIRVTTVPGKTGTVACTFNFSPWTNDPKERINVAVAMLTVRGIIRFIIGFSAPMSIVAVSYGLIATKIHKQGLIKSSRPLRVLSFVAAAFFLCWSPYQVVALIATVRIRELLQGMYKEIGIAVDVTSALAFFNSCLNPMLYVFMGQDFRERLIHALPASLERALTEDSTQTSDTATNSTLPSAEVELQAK
Description: as §1

Row | FPR2 Ga16-HEK293 (Rel. eff.) (FPR2) | EC50 (FPR2) [nM] | FPR1 Ga16-HEK293 (Rel. eff.) (FPR1) | EC50 (FPR1) [nM] | Compound
1 | 1.05 | 308 | 0.98 | 4.93 | CCC[C@H](NC(=O)CNC(=O)Nc1ccc(Br)cc1)C(=O)O [Compound 6, (S)-2-(2-(3-(4-bromophenyl)ureido)acetamido)pentanoic acid]
2 | 0.81 | 5630 | 0.99 | 76 | CC(C)C[C@H](NC(=O)CCNC(=O)Nc1ccc(Br)cc1)C(=O)O [Compound 5, (S)-2-(3-(3-(4-bromophenyl)ureido)propanamido)-4-methylpentanoic acid]
3 | 0.91 | 224 | 1.00 | 0.58 | CC(C)C[C@H](NC(=O)CNC(=O)Nc1ccc(Br)cc1)C(=O)O [Compound 1, (S)-2-(2-(3-(4-bromophenyl)ureido)acetamido)-4-methylpentanoic acid]
4 | 1.07 | 356 | 0.97 | 14.7 | O=C(CNC(=O)Nc1ccc(Br)cc1)N[C@@H](Cc1ccccc1)C(=O)O [Compound 4, (S)-2-(2-(3-(4-bromophenyl)ureido)acetamido)-3-phenylpropanoic acid]
